# Measured values published in patent US6475953B1, “Composition and method for treating plants with exogenous chemicals” (Monsanto Technology LLC, priority 1996, dated 2002).
# Assays:
# Format in all cases: in vivo
# [1] = system: Prickly sida (Sida spinosa, SIDSP); assay: Greenhouse herbicidal effectiveness test, percent inhibition, prickly sida
# Text: (§1) The herbicidal effectiveness data set forth herein report “inhibition” as a percentage following a standard procedure in the art which reflects a visual assessment of plant mortality and growth reduction by comparison with untreated plants, made by technicians specially trained to make and record such observations. In all cases. a single technician makes all assessments of percent inhibition within any one experiment or trial. Such measurements are relied upon and regularly reported by Monsanto Company in the course of its herbicide business.
# (§2) The following procedure was used for testing compositions of the Examples to determine herbicidal effectiveness, except where otherwise indicated.
# (§3) Seeds of the plant species indicated were planted in 85 mm square pots in a soil mix which was previously steam sterilized and prefertilized with a 14-14-14 NPK slow release fertilizer at a rate of 3.6 kg/m3. The pots were placed in a greenhouse with sub-irrigation. About one week after emergence, seedlings were thinned as needed, including removal of any unhealthy or abnormal plants, to create a uniform series of test pots.
# (§4) The plants were maintained for the duration of the test in the greenhouse where they received a minimum of 14 hours of light per day. If natural light was insufficient to achieve the daily requirement, artificial light with an intensity of approximately 475 microeinsteins was used to make up the difference. Exposure temperatures were not precisely controlled but averaged about 27° C. during the day and about 18° C. during the night. Plants were sub-irrigated throughout the test to ensure adequate soil moisture levels.
# (§5) A set of pots was left untreated as a reference against which effects of the treatments could later be evaluated.
# (§6) Application of glyphosate compositions was made by spraying with a track sprayer fitted with a 9501E nozzle calibrated to deliver a spray volume of 93 liters per hectare (1/ha) at a pressure of 166 kilopascals (kPa). After treatment, pots were returned to the greenhouse until ready for evaluation.
# (§7) Treatments were made using dilute aqueous compositions. These could be prepared as spray compositions directly from their ingredients, or by dilution with water of preformulated concentrate compositions.
# For evaluation of herbicidal effectiveness, all plants in the test were examined by a single practiced technician, who recorded percent inhibition, a visual measurement of the effectiveness of each treatment by comparison with untreated plants. […]
# Prickly sida (Sida spinosa, SIDSP) plants were grown and treated by the standard procedures given above. Applications of spray compositions were made 22 days after planting SIDSP, and evaluation of herbicidal inhibition was done 19 days after application.
# Prickly sida (Sida spinosa, SIDSP) plants were grown and treated by the standard procedures given above. Applications of spray compositions were made 23 days after planting SIDSP, and […].
# Prickly sida (Sida spinosa, SIDSP) plants were grown and treated by the standard procedures given above. Applications of spray compositions were made 22 days after planting SIDSP, and evaluation of herbicidal inhibition was done 19 days after application. […]
# [2] = system: Japanese millet (Echinochloa crus-galli, ECHCF); assay: Greenhouse herbicidal effectiveness test, percent inhibition, Japanese millet; conditions: for % Inhibition ECHCF: Example 90, evaluation 11 days after application
# Text: as §1, §2, §3, §4, §5, §6, §7
# (§8) For evaluation of herbicidal effectiveness, all plants in the test were examined by a single practiced technician, who recorded percent inhibition, a visual measurement of the effectiveness of each treatment by comparison with untreated plants.
# (§9) Velvetleaf (Abutilon theophrasti, ABUTH) and Japanese millet (Echinochloa crus-galli, ECHCF) plants were grown and treated by the standard procedures given above. […]
# [3] = system: Velvetleaf (Abutilon theophrasti, ABUTH); assay: Greenhouse herbicidal effectiveness test, percent inhibition, velvetleaf
# Text: as §1, §2, §3, §4, §5, §6, §7, §8, §9
# [4] = system: plant species indicated in the Example (ABUTH, ECHCF, SIDSP ...); assay: Greenhouse herbicidal effectiveness test, stated overall or averaged over the plant species of the Example; conditions: statement in the discussion of the Example at the place; rates and comparators as stated there
# Text: as §1
# The following procedure was used for testing compositions of the Examples to determine herbicidal effectiveness, except where otherwise indicated. […]
# as §5
# as §6, with “evaluation. […]” for “evaluation.”
# as §8
# [5] = Sida spinosa, 240 h, read-out: % Inhibition SIDSP
# [6] = Echinochloa crus-galli, 240 h, read-out: % Inhibition ECHCF
# [7] = Example 90, glufosinate rate 50 g a.i./ha, evaluation 11 days after application
molecule,measurement,setting,value
O=C(O)c1cc(Oc2ccc(C(F)(F)F)cc2Cl)ccc1[N+](=O)[O-] [Acifluorfen],inhibition at 25 g/ha,[1]; [5],15%
same,inhibition at 50 g/ha,[1]; [5],17%
same,inhibition at 100 g/ha,[1]; [5],35%
same,inhibition at 200 g/ha,[1]; [5],40%
same,inhibition at 25 g/ha,[2]; [6],2%
same,inhibition at 50 g/ha,[2]; [6],7%
same,inhibition at 100 g/ha,[2]; [6],18%
same,inhibition at 200 g/ha,[2]; [6],35%
same,inhibition at 25 g/ha,"[3]; Abutilon theophrasti, 240 h, Example 83, acifluorfen rate 25 g a.i./ha, evaluated 10 days after application",20%
same,inhibition at 50 g/ha,"[3]; Abutilon theophrasti, 240 h, Example 83, acifluorfen rate 50 g a.i./ha, evaluated 10 days after application",32%
same,inhibition at 100 g/ha,"[3]; Abutilon theophrasti, 240 h, Example 83, acifluorfen rate 100 g a.i./ha, evaluated 10 days after application",52%
same,inhibition at 200 g/ha,"[3]; Abutilon theophrasti, 240 h, Example 83, acifluorfen rate 200 g a.i./ha, evaluated 10 days after application",62%
COC(=O)NS(=O)(=O)c1ccc(N)cc1 [Asulam (technical)],% Inhibition ABUTH,"[3]; asulam rate 400 g a.i./ha, evaluation 14 days after application",17%
COc1c(Cl)ccc(Cl)c1C(=O)O [Dicamba (technical)],% Inhibition SIDSP,"[1]; dicamba rate 25 g a.i./ha, evaluation 17 days after application",30%
same,% Inhibition SIDSP,"[1]; dicamba rate 50 g a.i./ha, evaluation 17 days after application",40%
same,% Inhibition SIDSP,"[1]; dicamba rate 100 g a.i./ha, evaluation 17 days after application",50%
same,% Inhibition SIDSP,"[1]; dicamba rate 200 g a.i./ha, evaluation 17 days after application",58%
"C[N+](C)(C)CCCNS(=O)(=O)C(F)(F)C(F)(F)C(F)(F)C(F)(F)C(F)(F)C(F)(F)C(F)(F)C(F)(F)F.[I-] [Fluorad FC-135, 3-(((heptadecafluorooctyl)sulfonyl)amino)-N,N,N-trimethyl-1-propaminium iodide]",concentration of Fluorad FC-135 which had to be added in tank-mix to Formulation B to bring its herbicidal performance up to that of Formulation C,"[1]; Example 21, SIDSP, 20 days after application",~0.1%
same,concentration of Fluorad FC-135 which had to be added in tank-mix to Formulation B to bring its herbicidal performance up to that of Formulation C,"[2]; Example 21, ECHCF, after application",approximately 0.25%
same,optimum adjuvant concentration,"[2]; Example 25, ECHCF, tank-mix adjuvant for glyphosate as Formulation B, 21 days after application",0.2%
same,concentration of Fluorad FC-135 which had to be added in tank-mix to Formulation B to bring its herbicidal performance up to that of Formulation C,"[3]; Example 21, ABUTH, 20 days after application",~0.02%
same,optimum adjuvant concentration,"[3]; Example 25, ABUTH, tank-mix adjuvant for glyphosate as Formulation B, 21 days after application",0.2%
CP(=O)(O)CCC(N)C(=O)O (stereo not drawn) [Glufosinate (technical)],% Inhibition SIDSP,[1]; [7],5%
same,% Inhibition SIDSP,"[1]; Example 90, glufosinate rate 100 g a.i./ha, evaluation 11 days after application",10%
same,% Inhibition ECHCF,[2]; glufosinate rate 50 g a.i./ha,0%
same,% Inhibition ECHCF,[2]; glufosinate rate 100 g a.i./ha,0%
same,% Inhibition ABUTH,[3]; [7],0%
"O=C(O)CNCP(=O)(O)O [glyphosate, N-phosphonomethylglycine, reference compound]",average inhibition of ABUTH,"[3]; Example 27, average over four glyphosate rates, no excipient, 19 days after application",32%
Steareth-20,"herbicidal effectiveness, overall for the species of the Example, in words",[4],more effective additives for Formulation B than steareth-10
ceteareth-30,"herbicidal effectiveness, overall for the species of the Example, in words",[4],more effective additives for Formulation B than steareth-10
